Key:
HCC1428 cells = assay: Clonogenic assay in HCC1428 cells (endogenous E2-E10 ESR1-CCDC170 fusion); format: cell-based, human; conditions: for cell viability, inhibitor in combination with tamoxifen or fulvestrant compared to tamoxifen or fulvestrant alone / therapeutic effect when combined with fulvestrant, comparison / therapeutic activity in combination with tamoxifen or fulvestrant, comparison between inhibitors: lapatinib 2 µM; for cell viability, inhibitor in combination with tamoxifen or fulvestrant compared to tamoxifen or fulvestrant alone: dasatinib 0.05 µM, BEZ235 8 nM; for cell viability, inhibitor in combination with tamoxifen or fulvestrant compared to tamoxifen or fulvestrant alone / therapeutic activity in combination with tamoxifen or fulvestrant, comparison between inhibitors: AZD8931 1 µM; for therapeutic effect when combined with fulvestrant, comparison: dasatinib 0.05 µM plus fulvestrant; for therapeutic activity in combination with tamoxifen or fulvestrant, comparison between inhibitors: dasatinib 0.05 µM vs BEZ235 8 nM
ZR-75-1 cells = assay: Clonogenic assay in ZR-75-1 cells (E2-E6 ESR1-CCDC170 fusion); format: cell-based, human; conditions: for cell viability, concomitant inhibitor compared to endocrine treatment alone: lapatinib 2 µM or dasatinib 0.05 µM with tamoxifen or fulvestrant
Description: A) Sensitivity of ZR-75-1 cells to tamoxifen in combination with HER2, SRC, or HER2+SRC inhibitors as measured by clonogenic assays. ZR-75-1 cells were treated with different dosages of 4-OH tamoxifen (µM), or 4-OH tamoxifen plus lapatinib (2 µM), dasatinib (0.05 µM), or lapatinib (2 µM) + dasatinib (0.05 µM). Data were normalized against vehicle treatment alone (as 100%). […] Data were normalized against vehicle treatment alone (as 100%).
Left panel, the representative plate images of clonogenic assays. Right panel, the relative clonogenic viabilities normalized to tamoxifen monotreatment (Means ± SD. of triplicates).
The clonogenic viabilities following the respective treatments were assessed by clonogenic assays.

MDA-MB-415 = assay: Clonogenic assay in fusion-negative MDA-MB-415 cells; format: cell-based; conditions: Homo sapiens; MDA-MB-415 (fusion-negative); titrated lapatinib in combination with 0.5 µM tamoxifen, 10 to 13 days; read-out: IC50 (clonogenic viability)
CAMA-1 = assay: Clonogenic assay in fusion-negative CAMA-1 cells; format: cell-based; conditions: Homo sapiens; CAMA-1 (fusion-negative); titrated lapatinib in combination with 0.5 µM tamoxifen, 10 to 13 days; read-out: IC50 (clonogenic viability)
HER2 = conditions: HCC1428 cells

SMILES | cell viability, inhibitor in combination with tamoxifen or fulvestrant compared to tamoxifen or fulvestrant alone (HCC1428 cells) | cell viability, concomitant inhibitor compared to endocrine treatment alone (ZR-75-1 cells) | therapeutic effect when combined with fulvestrant, comparison (HCC1428 cells) | therapeutic activity in combination with tamoxifen or fulvestrant, comparison between inhibitors (HCC1428 cells) | other results
CNC(=O)CN1CCC(Oc2cc3c(Nc4cccc(Cl)c4F)ncnc3cc2OC)CC1 [AZD8931] | significantly inhibited cell viability | – | – | – | –
Cn1c(=O)n(-c2ccc(C(C)(C)C#N)cc2)c2c3cc(-c4cnc5ccccc5c4)ccc3ncc21 [BEZ235] | significantly inhibited cell viability | – | – | – | –
Cc1nc(Nc2ncc(C(=O)Nc3c(C)cccc3Cl)s2)cc(N2CCN(CCO)CC2)n1 [dasatinib] | significantly inhibited cell viability | did not show any significant therapeutic benefit | comparable therapeutic effects | better therapeutic activities than BEZ235 or AZD8931 | activity in the presence of tamoxifen, comparison (HCC1428 cells; dasatinib 0.05 µM vs lapatinib 2 µM plus 4-OH tamoxifen): better activity than lapatinib
CS(=O)(=O)CCNCc1ccc(-c2ccc3ncnc(Nc4ccc(OCc5cccc(F)c5)c(Cl)c4)c3c2)o1 [lapatinib] | significantly inhibited cell viability | further decreased cell viability | comparable therapeutic effects | better therapeutic activities than BEZ235 or AZD8931 | IC50 (ZR-75-1 cells; Homo sapiens, ZR-75-1 (E2-E6 variant), titrated lapatinib in combination with 0.5 µM tamoxifen, 10 to 13 days, normalized to tamoxifen monotreatment, read-out: IC50 (clonogenic viability)): 600 nM; IC50 (MDA-MB-415): 4000 nM; IC50 (CAMA-1): 6500 nM; IC50 (HCC1428 cells; Homo sapiens, HCC1428 (E2-E10 variant), titrated lapatinib in combination with 0.5 µM tamoxifen, 10 to 13 days, normalized to tamoxifen monotreatment, read-out: IC50 (clonogenic viability)): 150 nM
CC/C(=C(\c1ccccc1)c1ccc(OCCN(C)C)cc1)c1ccccc1 [tamoxifen] | – | – | – | – | response of cells to endocrine treatment (clonogenic assay) (ZR-75-1 cells; increasing doses of tamoxifen or fulvestrant): responded; HER2 protein level (Western blot) (HER2): upregulated; cell growth (clonogenic assay), endocrine agent alone (HCC1428 cells; Tam 0.5 µM or Ful 0.1 µM, 72 hours): reduced cell growth efficiently

From patent US20230175069A1, “COMPOSITIONS AND METHODS FOR DETECTING GENE FUSIONS OF ESR1 AND CCDC170 FOR DETERMINING INCREASED RESISTANCE TO ENDOCRINE THERAPY AND FOR CANCER TREATMENT” (UNIVERSITY OF PITTSBURGH-OF THE COMMONWEAL TH SYSTEM OF …, priority 2020, published 2023)
